Columns and labels:
Type in all cases: cell-based
mold [1] = test: CO2 study in barley samples, propylene glycol esters compared with other esters (Example 10); conditions: barley 19.8% moisture, 0.02-0.08 mol/kg, molar basis
Method: (§1) Materials. The moisture level of barley samples was increased till 20.2%. [table] Statistical analysis. To determine significant differences in CO2-values (p<0.05), repeated measures analysis was performed by method of General Linear Models procedure (StatGraphics Centurion XV). The repeated measures statistical treatment of results was used because it can be used when change over time is assessed. Where significant differences resulted, Multiple Range Test was used to separate the means.

mold [2] = test: CO2 study in soybean meal samples (Example 13); conditions: 0.06 mol/kg, after one month of storage
Method: Efficacy on soybean meal. FIGS. 18 and 19 show the CO2 production (%) of the untreated soybean meal samples compared to the soybean meal samples treated with ester 1 and propionic acid at a dosage of 0.06 and 0.08 mol/kg, respectively. In the untreated samples, a fast increase in CO2 level was measured within the first days and the CO2 value stayed around 20% during the whole course of the trial. […] Samples treated with ester 1 and propionic acid at a dosage of 0.08 mol/kg were still completely stable after 84 days.

mold [3] = test: CO2 study in barley samples, dose response of propionic acid esters as mold inhibitors (Example 9); conditions: barley 20.2% moisture
Method: Materials. Barley was procured from a local supplier.
Efficacy. The moisture level of barley was determined before the start of the experiments4. The moisture level of the barley samples was adjusted to 20.2+/−0.5% by the addition of tap water. The barley samples, with the adjusted moisture content, were afterwards treated with the different extracted esters at different dose levels (0.02 mol/kg, 0.04 mol/kg, 0.06 mol/kg and 0.08 mol/kg). The untreated barley samples and samples treated with propionic acid (0.02 mol/kg-0.08 mol/kg) were included as controls. All barley samples were collected in closed plastic containers for evaluation of the CO2-production. The samples were stored at 25° C. The CO2-production in the headspace was monitored regularly during a 3-month period using the Edinburgh sensor Guardian NG. Three replicates were analyzed for each treatment.
as §1, with “Statistical” for “Materials. The moisture level of barley samples was increased till 20.2%. [table] Statistical”, “CO2-values values” for “CO2-values”

| Structure (SMILES) | efficacy in controlling mold growth (CO2 evolution), comparative (mold [1]) | CO2 levels during storage (mold [2]) | CO2 increase compared to the esters (mold [3]; 0.06 mol/kg) | storage time for which samples stay stable / after which CO2 starts increasing (mold [3]; 0.08 mol/kg) [days] |
| --- | --- | --- | --- | --- |
| CC(=O)O [acetic acid] | less effective in controlling mold growth compared to propionic acid | – | – | – |
| CCC(=O)O [propionic acid] | – | CO2 levels started to increase | CO2 increased faster | 40 |

Reference: patent US20230189803A1, “COMPOSITIONS CONTAINING ORGANIC ACIDS AND THEIR ESTERS TO PREVENT MOLD CONTAMINATION IN ANIMAL FEED” (KEMIN INDUSTRIES, INC., priority 2021, published 2023)
